{"source": "patent US20210346312A1", "about": "“Flat Product for Microbiological Sanitation of the Urogenital Tract” (Tecuro Medical GmbH, priority 2018, published 2021)", "system": "Reconstituted human 3D EpiVaginal models", "assay": "Cytotoxicity test (MTT assay, based on DIN ISO 10993-5)", "type": "cell-based", "details": "positive control, 1%, typical value", "experimental": "To determine the compatibility of a planar product for treatment of the urogenital tract, the Cytotoxicity Test described below can be used. It is based on the standard DIN ISO 10993-5.\nReconstituted human 3D EpiVaginal models (e.g., MatTek) are used. To this end, an element of 6 mm in diameter from a planar product according to the invention is topically applied to the 3D EpiVaginal skin models and incubated on the models for 3 and 18 hours. Skin models treated with sterile water are used as negative control, and skin models treated with the […] surfactant Triton X-100 (1%) are used as positive control. The vitality of the skin models is evaluated in the MTT assay (3-(4,5-dimethylthiazol-2-yl)-2,5-diphenyltetrazolium bromide) (see Stockert et al. Acta Histochemica 120: 159-167 (2018), doi: 10.1016/j.acthis.2018.02.005; Chacon et al. In Vitro Methods in Pharmaceutical Research, ISBN 9780080534602 and https://en.wikipedia.org/wiki/MTT_assay). This involves setting the vitality value of the negative control to 100%. […] According to the invention, what is considered to be an acceptable value is typically a vitality of >80% after 18 h."}
{"substance": "Triton X-100", "values": [{"measurement": "vitality after 3 h of incubation", "setting": "3 h", "value": 25, "unit": "%"}, {"measurement": "vitality after 18 h", "setting": "18 h", "value": "less than 10%"}]}
